Patent publication US4443478A, “Prostaglandin analogues” (Ono Pharmaceutical Co., Ltd., priority 1981, dated 1984)
Values after ≈ are worked out from the molar mass of the structure shown.

Assays:
stress ulceration = assay: inhibition of stress ulceration in rats; format: in vivo; conditions: rat, oral
From the text: For example, in standard laboratory tests, (i) in stress ulceration of rats [produced according to the methods of Takagi and Okabe, Jap.

[1] = test system: carbon tetrachloride-induced liver damage; assay: carbon tetrachloride-induced liver damage in rats; format: in vivo; conditions: rat, in comparison with controls
[2] = test system: α-naphthylisothiocyanate-induced liver damage; assay: α-naphthylisothiocyanate-induced liver damage in rats; format: in vivo; conditions: rat, oral, 100 μg/kg, in comparison with controls
blood pressure = assay: fall in blood pressure in the allobarbital-anaesthetized dog; format: in vivo; conditions: intravenous
uterine contraction = assay: stimulation of uterine contraction in the pregnant female rat; format: in vivo; conditions: 20th day of gestation, intravenous
male mice = assay: acute toxicity by oral administration; format: in vivo, mouse
Procedure: On the other hand, the compounds of the present invention were confirmed that their toxicities (i.e. LD50) were more than […] animal body weight by oral administration. Therefore, the compounds of the present invention may be considered to be sufficiently safe and suitable for medical use.

[3] = test system: D(+)-galactoseamine-induced liver damage; assay: D(+)-galactoseamine-induced liver damage in rats; format: in vivo; conditions: rat, oral, 100 μg/kg, in comparison with control
[4] = test system: adenosine diphosphate-induced blood platelet aggregation; assay: inhibition of adenosine diphosphate-induced blood platelet aggregation in platelet-rich plasma; format: cell-based; conditions: Homo sapiens; platelet-rich plasma of humans; read-out: concentration producing 50% inhibition of adenosine diphosphate-induced blood platelet aggregation

| SMILES | inhibition of plasma GOT (glutamic oxalacetic transaminase) ([1]; oral, 50 μg/kg) | inhibition of plasma GPT (glutamic pyruvic transaminase) ([1]; oral, 50 μg/kg) | inhibition of plasma GOT [2] | inhibition of plasma GPT [2] | inhibition of plasma bilirubin [2] | duration of fall in blood pressure (blood pressure; 0.5 μg/kg) | fall in blood pressure (blood pressure; 0.5 μg/kg) | stimulation of uterine contraction (uterine contraction; 20 μg/kg) | deaths in acute toxicity test (male mice; 5 mg/kg) | deaths in acute toxicity test (male mice; 10 mg/kg) | IC50 [4] | also measured |
| --- | --- | --- | --- | --- | --- | --- | --- | --- | --- | --- | --- | --- |
| CCCC[C@H](C)C[C@H](O)/C=C/[C@H]1[C@H](O)CC(=O)[C@@H]1CC(=O)CCCCC(=O)CO (relative stereo) [1-Hydroxymethyl-11α,15(S)-dihydroxy-17(S),20-dimethylprost-trans-13-ene-1,6,9-trione] | 58.0% | 59.7% | 49.0% | 53.7% | 21.2% | 29 min | 15 mm Hg | stimulated uterine contraction | no deaths in 10 cases | no deaths in 10 cases | – | inhibition of stress ulceration (stress ulceration; 20 μg/kg): 56.8%; inhibition of stress ulceration (stress ulceration; 50 μg/kg): 91.8%; inhibition of plasma GOT (glutamic oxalacetic transaminase) ([1]; subcutaneous, 20 μg/kg): 61.4%; inhibition of plasma GPT (glutamic pyruvic transaminase) ([1]; subcutaneous, 20 μg/kg): 48.7%; duration of fall in blood pressure (blood pressure; 0.3 μg/kg): 14 min; fall in blood pressure (blood pressure; 0.3 μg/kg): 6 mm Hg |
| CCCC1CC([C@H](O)/C=C/[C@H]2[C@H](O)CC(=O)[C@@H]2CC(=O)CCCCC(=O)CO)C1 (relative stereo) [1-hydroxymethyl-11α,15(S)-dihydroxy-15-(3-propylcyclobutyl)-16,17,18,19,20-pentanorprost-trans-13-ene-1,6,9-trione] | – | – | 53.1% | 61.3% | 30.3% | – | – | – | – | – | – | – |
| CCCCC1CCC([C@H](O)/C=C/[C@H]2[C@H](O)CC(=O)[C@@H]2CC(=O)CCCCC(=O)CO)C1 (stereo partly drawn) [1-Hydroxymethyl-11α,15(S)-dihydroxy-15-(3-butylcyclopentyl)-16,17,18,19,20-pentanorprost-trans-13-ene-1,6,9-trione] | 54.9% | 48.6% | 30.3% | 41.7% | 15.2% | 17 min | 20 mm Hg | stimulated uterine contraction | – | 2 deaths in 5 cases | 0.0036 to 0.072 µg/mL (≈ 0.00825 to 0.165 µM) | inhibition of plasma GOT [3]: 57.0%; inhibition of plasma GPT [3]: 54.0%; inhibition of plasma bilirubin [3]: 63.0%; duration of fall in blood pressure (blood pressure; 1.0 μg/kg): 40 min; fall in blood pressure (blood pressure; 1.0 μg/kg): 47 mm Hg; stimulation of uterine contraction (uterine contraction; 50 μg/kg): stimulated uterine contraction |
| CCCC1CCC([C@H](O)/C=C/[C@H]2[C@H](O)CC(=O)[C@@H]2CC(=O)CCCCC(=O)CO)C1 (stereo partly drawn) [1-Hydroxymethyl-11α,15(S)-dihydroxy-15-(3-propylcyclopentyl)-16,17,18,19,20-pentanorprost-trans-13-ene-1,6,9-trione] | 46.7% | 45.1% | – | – | – | – | – | – | one death in 5 cases | – | 0.0018 to 0.018 µg/mL (≈ 0.00426 to 0.0426 µM) | duration of fall in blood pressure (blood pressure; 0.1 μg/kg): 9 min; fall in blood pressure (blood pressure; 0.1 μg/kg): 20 mm Hg; duration of fall in blood pressure (blood pressure; 0.2 μg/kg): 23 min; fall in blood pressure (blood pressure; 0.2 μg/kg): 35 mm Hg |
